Data: patent publication US5830903A, “Triazole substituted quinoline derivatives for gastrointestinal treat-treatment” (Alkaloida Chemical Co., Ltd., priority 1993, dated 1998)
Marks after values point to notes of the source that are not given here.

What was measured:
[1] = tested on: lesions caused by intomethacin; assay: Indomethacin-induced gastric lesions; type: in vivo, female OFA-rats; details: Rattus norvegicus, po, 60 min before 20 mg/kg indomethacin; 6 h; from ulcer index; confidence limits 95%; read-out: ED50 mg/kg (p.o.)
Protocol: The compounds were administered in a volume of 0.5 ml/100 g in a suspension prepared in water with 2-4% Tween-80. After 6 hours the animals were over-anesthesized and their stomachs were opened along the greater curvature. The preparations were investigated by stereomicroscopy using an 8-fold enlargement. The number, size and incidence of erosions and ulcers was noted and compared with the control group treated with the carrier only.
The size of the ulcers was determined on the basis of the following score:
1: ulcer or erosion of the size of 1-2 mm;
2: ulcer or erosion of the size of 2-3 mm;
3: ulcer or erosion of the size of 3-4 mm;
4: ulcer longer than 4 mm;
5: ulcer longer and broader than 4 mm.
The ED50 values were calculated on the basis of ulcer-indexes:
ulcer index=/severeity of lesion x number of lesions/number of animals /n/

[2] = tested on: lesions caused by the NSAID naproxen; assay: Naproxen-induced gastric erosions, test substance 1 hour after naproxen; type: in vivo, WISTAR rats; details: n = 7
Protocol: (§1) Administration of the test substances followed 1 hour after injection. After 4 hours the animals were over-anesthesized with ether and the changes (erosions) were evaluated as in Example I.1. The size of the lesions was characterized by way of the ulcer index.

[3] = tested on: lesions caused by the NSAID piroxicam; assay: Piroxicam-induced gastric erosions, test substance 1 hour after piroxicam; type: in vivo, WISTAR rats; details: n = 7
Protocol: as §1

[4] = tested on: basic gastric acid secretion; assay: Basic gastric acid secretion in Shay rats (pylorus ligation); type: in vivo; details: for acidity μEqu/ml / volume: 4 h
Protocol: The pilorus of Shay rats of 150-170 g weight was tied in ether narcosis /Gastroenterology 5,43,1945/. The test substances were added on the course of operation intra-duodenally. Immediately after operation each rat obtained 0.50 ml s.c. of a physiological salt solution for hydration. After 4 hours the rats were over-anesthesized, the stomach liquid was collected, centrifugated and the volume determined. Acidity of the secretion was determined with 0.1N aqueous sodium hydroxide in the presence of a Tobfler reagent.

[5] = tested on: histamine stimulated hydrochlorid acid secretion; assay: Histamine stimulated gastric acid secretion in Shay rats; type: in vivo; details: for acid secretion μEqu/4^h: p < 0.01
Protocol: The test substances were added on the course of operation intra-duodenally. Immediately after operation each rat obtained 0.50 ml s.c. of a physiological salt solution for hydration. After 4 hours the rats were over-anesthesized, the stomach liquid was collected, centrifugated and the volume determined. […] Measurement of stimulated secretion of gastric acid was also carried out according to the above method.

[6] = tested on: lesions induced with hydrochloric acid and ethanol; assay: Gastric haemorrhages induced by hydrochloric acid in ethanol (cytoprotection); type: in vivo, female rats; details: for average length of haemmorrhages, change in %: treated vs control
Protocol: The volume of treatment was 0.5 ml/100 g. […] The average degree of haemorrhages of the treated groups was compared to the control groups treated with the vehicle only. Number of animals was 6-18 in each group.

[7] = tested on: alcohol induced increase of gastric glandular capillary permeability; assay: Alcohol induced increase of gastric glandular capillary permeability; type: in vivo, rats; details: for Evans-blue: p < 0.05
Protocol: After 13 minutes 1 ml of 100% ethanol was added perorally and after further 2 minutes the stomachs were removed and their weights measured. […]

[8] = tested on: stress ulcer caused by immersion; assay: Stress ulcer caused by immersion; type: in vivo, Wistar rats
Protocol: 30 minutes after peroral treatment with the test substance, […]. After seven hours the glandular lesions appearing in the stomach were evaluated according to the score described in Example I.1.

gastric blood-supply = assay: Gastric blood-supply, Rb^86 isotope method (Sapirstain); type: in vivo, Wistar female rats; details: 100 mg/kg p.o., n = 11, ± SE
Protocol: To investigate influence of gastric blood-supply the tests were carried out according to the method of Sapirstain using Rb^86 isotopes (Circ.Res.4, 689, 1956; Am. J. Physiol. 193. 161,1958). The test substances were administered perorally 2 hours before the experiment started and the degree of blood flow was determined in ml/min/g values. In the experiments the stomachs of Wistar female rats were divided into three segments i.e. pre-stomach, corpus and anthrum.

[9] = tested on: ulcers induced by reserpine; assay: Reserpine induced ulcers; type: in vivo, female OFA rats; details: 40 mg/kg p.o.; reserpine 5 mg/kg s.c.; 18 h
Protocol: Female OFA rats of 130-160 g weight, starved for 24 hours, were treated at the same time perorally with 40 mg/kg doses of the substances to be tested and with 5 mg/kg s.c. doses of reserpine. After 18 hours the animals were over-anesthesized and the removed stomachs were investigated under stereomicroscope using a 8-fold enlargement. The number of ulcers was counted and their size was evaluated using 0-0.5-1-2-4-8-16-32 scores. The number of animals was 5 for each dose.

Acute toxicity in mice = details: mouse, in vivo, po, per os, 14 days
Protocol: (§2) To determine acute toxicity the test substances were administered in increasing doses to CFLP male mice (18-20 g) and to male Wistar rats (150-160 g). The LD50 values were calculated after 14 days of observation according to Litchfield and Wilcoxon.

Acute toxicity in rats = details: rat, in vivo, po, per os, 14 days
Protocol: as §2

[10] = naproxen 75 mg/kg po. + 20 mg/kg po.
[11] = histamine 10 mg/kg s.c. + 5 mg/kg i.d., p < 0.05
[12] = 25 mg/kg p.o., n = 10, p < 0.01

For `c1ccc2c(-n3cncn3)ccnc2c1` [Substance 1, 4-(1H-1,2,4-triazole-1-yl)-quinoline], the ED50 [1] was 13 mg/kg, the inhibition % [2, 10] was 39% and the “ulcus index ± SEM” value [2, 10] was 15.6 ± 6.4. The inhibition % ([2]; naproxen, 30 mg/kg po.) was 95%, the “ulcus index ± SEM” value ([2]; naproxen, 30 mg/kg po., p < 0.01) was 1.2 ± 0.5 and the inhibition % ([3]; piroxicam 60 mg/kg po. + 20 mg/kg po.) was 84%. The “ulcus index ± SEM” value ([3]; piroxicam 60 mg/kg po. + 20 mg/kg po., p < 0.05) was 3.8 ± 0.4, the inhibition % ([3]; piroxicam, 30 mg/kg po.) was 93% and the “ulcus index ± SEM” value ([3]; piroxicam, 30 mg/kg po., p < 0.01) was 1.8 ± 0.5. The “acidity μEqu/ml” value ([4]; dose 5 i.d.) was 105 ± 5 μEqu/ml, the volume ([4]; dose 5 i.d., p < 0.05) was 1.4 ± 1.24 mL and the “acid secretion μEqu/4^h” value ([4]; dose 5 i.d., p < 0.05) was 147.0 ± 0.19 μEqu/4^h. For the same compound, the “acidity μEqu/ml” value ([4]; dose 10 i.d., not possible to titrate part of the secretion because of small volume) was 61 ± 5 μEqu/ml, the volume ([4]; dose 10 i.d., p < 0.01) was 0.58 ± 0.1 mL and the “acid secretion μEqu/4^h” value ([4]; dose 10 i.d., p < 0.01) was 42.0 ± 0.3 μEqu/4^h. The “acid secretion μEqu/4^h” value ([5]; histamine 10 mg/kg s.c. + 5 mg/kg i.d.) was 180 ± 12 μEqu/4^h, the “acidity μEqu/ml” value [5, 11] was 105 ± 10 μEqu/ml and the “volume/4^h” value [5, 11] was 1.7 ± 0.2 mL. For the same compound, the “acid secretion μEqu/4^h” value ([5]; histamine s.c. + 10 mg/kg i.d.) was 111 ± 9 μEqu/4^h, the “acidity μEqu/ml” value ([5]; histamine s.c. + 10 mg/kg i.d., p < 0.05) was 123 ± 8 μEqu/ml and the “average length of haemmorrhages, treated” value ([6]; 2.3 mg/kg p.o., n = 12, control 95.7 ± 9.4) was 91.0 ± 9.4 mm. The “average length of haemmorrhages, change in %” value (shortened to “average length … change in %”) ([6]; 2.3 mg/kg p.o.) was -4%, the “average length of haemmorrhages, treated” value ([6]; 5.0 mg/kg p.o., n = 18, control 92.9 ± 6.3) was 39.7 ± 8.1 mm and the “average length … change in %” value ([6]; 5.0 mg/kg p.o.) was -57%. For the same compound, the “average length of haemmorrhages, treated” value ([6]; 10.0 mg/kg p.o., n = 18, control 61.3 ± 9.8) was 14.2 ± 7.4 mm, the “average length … change in %” value ([6]; 10.0 mg/kg p.o.) was -77% and the “alcohol-induced lesions (in words)” value ([7]; 10 and 20 mg/kg) was “alcohol-induced lesions are reduced”. For the same compound, the “stomach” value ([7]; 100% ethanol + 10 mg/kg) was 0.91 ± 0.1 g, the “Evans-blue” value ([7]; 100% ethanol + 10 mg/kg) was 4.55 ± 0.3 µg/g and the “stomach” value ([7]; 100% ethanol + 20 mg/kg) was 0.93 ± 0.1 g. The “Evans-blue” value ([7]; 100% ethanol + 20 mg/kg) was 4.4 ± 0.23 µg/g, the erosion inhibition % ([8]; 10 mg/kg p.o., n = 7) was 21% and the erosion ulcus-index mm ([8]; 10 mg/kg p.o., n = 7) was 33.6 ± 10.2 mm. The hyperemia inhibition % ([8]; 10 mg/kg p.o., n = 7) was 29%, the hyperemia ulcer-index mm ([8]; 10 mg/kg p.o., n = 7) was 64.3 ± 8.6 mm and the erosion ulcus-index mm ([8]; 25 mg/kg p.o., n = 10) was 12.1 ± 3.6 mm. The hyperemia ulcer-index mm ([8]; 25 mg/kg p.o., n = 10) was 35.8 ± 9.4 mm, the erosion inhibition % [8, 12] was 71% and the hyperemia inhibition % [8, 12] was 55%. The erosion ulcus-index mm ([8]; 50 mg/kg p.o., n = 7) was 5.7 ± 1.5 mm, the hyperemia ulcer-index mm ([8]; 50 mg/kg p.o., n = 7) was 11.4 ± 2.8 mm and the erosion inhibition % ([8]; 50 mg/kg p.o., n = 7, p < 0.01) was 87%. The hyperemia inhibition % ([8]; 50 mg/kg p.o., n = 7, p < 0.01) was 85%, the “inhibition of hyperemia and erosion (in words)” value ([8]; substance 1 at 50 mg/kg p.o., cimetidine) was “significally inhibit hyperemia and erosion” and the “blood flow, pre-stomach” value (gastric blood-supply; control 0.23 ± 0.03) was 0.19 ± 0.01 mL/min/g. For the same compound, the “blood flow, corpus” value (gastric blood-supply; control 0.51 ± 0.03, p < 0.02) was 0.70 ± 0.09 mL/min/g, the “blood flow, anthrum” value (gastric blood-supply; control 0.71 ± 0.07) was 1.01 ± 0.07 mL/min/g and the “number of ulcers, %change compared with control” value [9] was “+4%”. For the same compound, the “severity of ulcers, %change compared with control” value [9] was “+9%”, the ulcers per treated [9] was 5/5 and the LD50 at 336 h (Acute toxicity in mice) was 840 mg/kg. The LD50 at 336 h (Acute toxicity in rats) was 560 mg/kg.
